Laboratory results from patent publication US20090318402A1, “RUTHENIUM (II) COMPOUNDS” (The University Court of the University of Edinburg, priority 2006, published 2009).

What was measured:
A549 cancer cell line [1] = assay: Cytotoxicity: inhibitory growth activity, sulforhodamine B assay; assay type: cell-based; settings: 24 hours drug exposure, 96 hours recovery, SRB
Procedure: (§1) Compounds were tested for inhibitory growth activity against the A2780 and A549 cancer cell lines. Each drug was tested for activity at six different concentrations (100 μM, 50 μM, 10 μM, 5 μM, 1 μM and 0.1 μM) and each concentration was tested in triplicate, relative to a cisplatin control.
The A2780 cancer cell line was maintained by growing the cells in RPMI media supplemented with 5% fetal bovine serum, 1% penicillin/streptomycin and 2 mM L-glutamine. […] The cells were kept incubated at 37° C., 5% CO2, high humidity. The A549 cancer cell line was maintained by growing the cells in DMEM media supplemented with 10% fetal bovine serum, 1% penicillin/streptomycin and 2 mM L-glutamine. […] The cells were kept incubated at 37° C., 5% CO2, high humidity.
A2780 cancer cells were plated out at 50000 cells/well (±10%) on day one. A549 cancer cells were plated out at 20000 cells/well (±10%) on day two. […] The remaining biomass was estimated by the sulforhodamine B assay. The cells were then fixed using 50 μl 50% (w/v) TCA and incubated at 4° C. for one hour. The biomass was stained with 100 μl 0.4% (w/v) sulforhodamine B in 1% acetic acid. The dye was solubilised with Tris Buffer and the absorbance was read using a BMG Fluostar microplate reader at 595 nm. A baseline correction at 690 nm was subtracted from the values. The absorbance for 100% cell survival was based on the average absorbance for the 0.1 μM dosed triplicate for that drug. IC50 values were calculated using XL-Fit version 4.0.

A2780 cancer cell line = assay: as above; assay type: cell-based; settings: 24 hours drug exposure, 96 hours recovery, SRB
Procedure: as §1
The A2780 cancer cell line was maintained by growing the cells in RPMI media supplemented with 5% fetal bovine serum, 1% penicillin/streptomycin and 2 mM L-glutamine. The cells were split when approximately 70-80% confluence were reached using 0.25% trypsin/EDTA. The cells were kept incubated at 37° C., 5% CO2, high humidity. The A549 cancer cell line was maintained by growing the cells in DMEM media supplemented with 10% fetal bovine serum, 1% penicillin/streptomycin and 2 mM L-glutamine. The cells were split when approximately 70-80% confluence were reached using 0.25% trypsin/EDTA. The cells were kept incubated at 37° C., 5% CO2, high humidity.
A2780 cancer cells were plated out at 50000 cells/well (±10%) on day one. A549 cancer cells were plated out at 20000 cells/well (±10%) on day two. On day three the test compound was dissolved in DMSO to give a stock solution of 20 mM and serial dilutions were carried out in DMSO to give concentrations of drug in DMSO of 10 mM, 2 mM, 1 mM, 0.2 mM and 0.02 mM. These were added to the wells to give the six testing concentrations and a final concentration of DMSO as 0.5% (v/v) with a total volume of drugs and media to be 200 μl. The cells were exposed to the drug for 24 hours then, after drug removal, fresh media was given and the cells were incubated for 96 hours recovery time. The remaining biomass was estimated by the sulforhodamine B assay. The cells were then fixed using 50 μl 50% (w/v) TCA and incubated at 4° C. for one hour. The biomass was stained with 100 μl 0.4% (w/v) sulforhodamine B in 1% acetic acid. The dye was solubilised with Tris Buffer and the absorbance was read using a BMG Fluostar microplate reader at 595 nm. A baseline correction at 690 nm was subtracted from the values. The absorbance for 100% cell survival was based on the average absorbance for the 0.1 μM dosed triplicate for that drug. IC50 values were calculated using XL-Fit version 4.0.

A549 cancer cells = assay: Detection of reactive oxygen species (ROS) with DCFH-DA probe; assay type: cell-based; settings: 25 μM, 0.5% DMSO, 6.5 hours, 310 K, cells pre-loaded with DCFH-DA; FIG. 4
Procedure: The generation of ROS can be detected inside living cells using the molecular probe DCFH-DA. This probe crosses the membrane into cells where it is hydrolyzed to DCFH. In the presence of ROS it is oxidized to highly fluorescent DCF. […] Cells were loaded with DCFH-DA (10 μM, 0.5% DMSO (v/v)) and were incubated at 310 K, 5% CO2, high humidity for 30 minutes. The probe was removed and the cells were washed twice with PBS (200 μL). The cells were then kept in Hanks Balanced Salt Solution (HBSS) and the ruthenium compounds were diluted with HBSS and added to the wells (25 μM, 0.5% DMSO (v/v)). Hydrogen peroxide (25 μM) was added as a positive control and the fluorescence was read every 200 seconds over a period of 6.5 hours at 310 K by excitation at 480±10 nm and emission at 538±15 nm on a BMG fluostar plate reader. A time course experiment was performed to follow any increase in fluorescence over 6.5 hours after addition of ruthenium compounds to cells pre-loaded with DFCH-DA.

A549 cancer cell line [2] = assay: Cell viability after increasing thiol levels (NAC pre-incubation); assay type: cell-based; settings: 24 hours incubation, 96 hour recovery, 5 mM NAC for two hours, FIG. 5
Procedure: Cell viability was determined in the A549 cancer cell line after cells were pre-incubated with 5 mM NAC to increase intracellular thiol levels. […] This implies that ROS are involved in cell death.

[3] = Aqueous solution chemistry followed by 1H NMR (hydrolysis, arene loss); assay type: physicochemical
Procedure: NMR-Spectroscopy: All ^1H NMR experiments for characterization of synthesized compounds were recorded on either a Bruker DMX 500 MHz spectrometer equipped with TBI [^1H, ^13C, ^15N] probe-head, equipped with z-field gradients or a Bruker DPX 360 MHz spectrometer. The proton signals were calibrated against the residual solvent peak, δ 7.27 (chloroform), 2.07 (acetone) and 2.52 (DMSO). The 2D ^1H-TOCSY and 2D ^1H COSY experiments for characterization were run on a Bruker DMX 500 MHz spectrometer. 2D-^1H ROESY experiment for characterization was recorded on a Bruker AVA […] spectrometer equipped with a with a TXI [^1H, ^13C, ^15N] probe-head, equipped with z-field gradients. All pH titration experiments were recorded on a Bruker AVA 600 MHz spectrometer where dioxan was added as an internal reference (δ 3.75, in 100% D2O). The water was suppressed using a 1D Double Pulse Field Gradient Spin Echo (DPFGSE) experiment. The aqueous solution behaviour was recorded on a Bruker bio 600 MHz spectrometer equipped with a cryoprobe and the water was suppressed using a 1D Double Pulse Field Gradient Spin Echo (DPFGSE) experiment. The chemical shifts were measured relative to dioxin (internal reference δ 3.75, in 90% H2O/10% D2O). All spectra were recorded using 5 mm quartz tubes at 298 K unless stated otherwise. All NMR data were processed using Xwin-NMR (Version 2.0 Bruker UK Ltd).
The complex was dissolved in H2O/D2O, the pH was taken, and NMR spectra were recorded at uniform time intervals at a fixed temperature using a multi-zg kinetic experiment program. After acquisition, Electrospray Mass Spectrometry was performed on a portion of the NMR solution.
The solution chemistry was followed by ^1H NMR unless stated otherwise.

[4] = 50 μM, 95% H2O, 5% MeOH, pH 2.27
[5] = Solution chemistry in phosphate buffer mimicking cell test conditions (NMR, ESI-MS); assay type: physicochemical; settings: 100 μM, 10 mM phosphate buffer, 95% D2O, 5% MeOD, 310 K, 24 h; pH* 7.35 (8), 7.40 (10), 7.31 (13), 7.38 (21)
Procedure: Solutions of four ruthenium complexes (8, 10, 13 and 21) in MeOD were diluted down in 10 mM phosphate buffer/D2O to give a final concentration of 100 μM ruthenium (95% D2O, 5% MeOD) and NMR spectra were recorded at 310 K initially (time ca. 15 minutes) and after 24 h. The pH* of the samples was 7.35 (8), 7.40 (10), 7.31 (13) and 7.38 (21), The samples were kept in the water bath at 310 K between acquisitions. After 24 hour, ESI-MS was performed on the samples. These conditions were chosen to mimic pH, concentration, exposure time and temperature for the biological cell tests.

[6] = Reactions with ascorbate (UV-Vis, 1H NMR); assay type: physicochemical; settings: 5 equivalents ascorbate, 10 mM phosphate buffer, pH 7.35 (UV-Vis) / 7.30 (NMR), 310K
[7] = 100 μM, 90% H2O/10% D2O, pH=ca 5, 25° C., initially (time=40 mins)

[Ru(biphenyl)(4-phenol-azo pyridine)Cl]PF6 [Compound 12]
IC50 (A549 cancer cell line [1]): 56 µM
IC50 (A2780 cancer cell line): 18 µM

[Ru(p-cymene)(4-phenol-azo pyridine)I]PF6 [Compound 21]
IC50 (A549 cancer cell line [1]): 4 µM
change in DCF fluorescence over time (ROS generation) (A549 cancer cells): increase in the DCF fluorescence
IC50 (A2780 cancer cell line): 4 µM
cell survival of cells pre-treated with NAC versus untreated cells (A549 cancer cell line [2]; 5 μM drug): greater cell survival

[Ru(benzene)(3(5)-(4-dimethylaminophenylazo)pyrazole)Cl]PF6 [Compound 17]
IC50 (A2780 cancer cell line): 88 µM

[Ru(p-cymene)(4-phenol-azo pyridine)Cl]PF6 [Compound 11]
IC50 (A2780 cancer cell line): 54 µM

[Ru(biphenyl)(Azpy-NMe2)Cl]PF6 [Compound 9]
IC50 (A549 cancer cell line [1]): 53 µM
IC50 (A2780 cancer cell line): 40 µM

CN(C)c1ccc(N=Nc2cc[nH]n2)cc1.F[P-](F)(F)(F)(F)F.[Cl-].[Ru+2].c1ccc(-c2ccccc2)cc1 [Compound 15, [Ru(biphenyl)(3(5)-(4-dimethylaminophenylazo)pyrazole)Cl]PF6]
IC50 (A549 cancer cell line [1]): 32 µM
IC50 (A2780 cancer cell line): 24 µM
arene loss (free biphenyl peaks) ([3]; 100 μM, 99.5% D2O, 0.5% DMSO, 115 mM NaCl, pH=7.35, 37° C., over 24 hours): major peaks corresponding to free biphenyl

[Ru(THN)(3(5)-(4-dimethylaminophenylazo)pyrazole)Cl]PF6 [Compound 18]
IC50 (A2780 cancer cell line): 57 µM

[Ru(biphenyl)(4-phenol-azo pyridine)I]PF6 [Compound 13]
IC50 (A549 cancer cell line [1]): 6 µM
change in DCF fluorescence over time (ROS generation) (A549 cancer cells): increase in the DCF fluorescence
IC50 (A2780 cancer cell line): 5 µM
cell survival of cells pre-treated with NAC versus untreated cells (A549 cancer cell line [2]; 5 μM drug): greater cell survival

[Ru(p-cymene)(3(5)-(4-dimethylaminophenylazo)pyrazole)Cl]PF6 [Compound 14]
IC50 (A549 cancer cell line [1]): 41 µM
half live for hydrolysis [4]: 2.09 h
IC50 (A2780 cancer cell line): 18 µM
speciation after 24 hours ([3]; 100 μM, 90% H2O/10% D2O, pH=ca 5, 25° C., after 24 hours): exists fully in the aqua form
aqua species [3, 7]: ~40%
chloride species [3, 7]: ~60%
course of the hydrolysis reaction ([3]; 100 μM, 90% H2O/10% D2O, pH=ca 5, 37° C. over 24 hours, compared with 25° C.): the course of the reaction is the same

CN(C)c1ccc(N=Nc2ccccn2)cc1.Cc1ccc(C(C)C)cc1.F[P-](F)(F)(F)(F)F.[I-].[Ru+2] [Compound 8, [Ru(p-cymene)(Azpy-NMe2)I]PF6]
IC50 (A549 cancer cell line [1]): 3 µM
hydrolysis [5]: no hydrolysis had occurred
change in DCF fluorescence over time (ROS generation) (A549 cancer cells): increase in the DCF fluorescence
IC50 (A2780 cancer cell line): 5 µM
cell survival of cells pre-treated with NAC versus untreated cells (A549 cancer cell line [2]; 5 μM drug): greater cell survival
reduction by ascorbate [6]: a one electron reduction was occurring
change of complex in solution ([3]; 100 μM, 99.5% D2O, 0.5% DMSO, 115 mM NaCl, pH=7.5, 37° C., over 24 hours): No change occurred
change of complex in solution ([3]; saturated solution (filtered), 90% H2O/10% D2O, pH=7.2, 25° C. over 24 hours): No change occurred

[Ru(THN)(4-phenol-azo pyridine)Cl]PF6 [Compound 19]
IC50 (A549 cancer cell line [1]): 81 µM
IC50 (A2780 cancer cell line): 38 µM

[Ru(p-cymene)(Azpy-NMe2NO2)I]PF6 [Compound 20]
IC50 (A549 cancer cell line [1]): 28 µM
IC50 (A2780 cancer cell line): 40 µM

[Ru(bip)(2-phenyl-azo pyridine)I]PF6 [Compound 7]
IC50 (A549 cancer cell line [1]): 39 µM
IC50 (A2780 cancer cell line): 51 µM

[(η^6-C6H5OCH2CH2OH)Ru(azpy-NMe2)I]I [Compound 22]
IC50 (A549 cancer cell line [1]): 49 µM
IC50 (A2780 cancer cell line): 15 µM

CN(C)c1ccc(N=Nc2cc[nH]n2)cc1.F[P-](F)(F)(F)(F)F.[I-].[Ru+2].c1ccc(-c2ccccc2)cc1 [Compound 16, [Ru(biphenyl)(3(5)-(4-dimethylaminophenylazo)pyrazole)I]PF6]
IC50 (A549 cancer cell line [1]): 42 µM
IC50 (A2780 cancer cell line): 31 µM

[NH2][Pt]([NH2])([Cl])[Cl] [CDDP, cisplatin, reference compound]
cell survival of cells pre-treated with NAC versus untreated cells (A549 cancer cell line [2]; 5 μM drug): greater cell survival

[Ru(biphenyl)(Azpy-NMe2)I]PF6 [Compound 10]
IC50 (A549 cancer cell line [1]): 2 µM
change in DCF fluorescence over time (ROS generation) (A549 cancer cells): increase in the DCF fluorescence
IC50 (A2780 cancer cell line): 3 µM
cell survival of cells pre-treated with NAC versus untreated cells (A549 cancer cell line [2]; 1 μM drug): greater cell survival
